Results: patent publication US8236792B2, “Substituted pyrrolidine amides as modulators of the histamine H3 receptor” (Janssen Pharmaceutica NV, priority 2008, dated 2012)

Molecular target: human H3 receptor (Homo sapiens, UniProt Q9Y5N1)
Test: H3 Receptor Binding (Human) Method 2, [125I]-iodoproxyfan competitive radioligand binding
Parameters: expressed in transfected cells
Conditions: read-out: Human H3 Ki
Procedure: SK-N-MC cells expressing the human H3 receptor were grown to confluence and tissue culture plates, washed with phosphate-buffered saline, and scraped into 50 mL tubes. After centrifugation, the supernatant was aspirated, and the pellets frozen and stored at −80° C. […] The homogenate was centrifuged at 25000×g for 25 min. […] Reactions were stopped by filtration through GF/B filter plates pre-soaked in 0.3% polyethylenimine and subsequently washed with Tris 50 mM, 5 mM EDTA buffer. Plates were dried for 1 h in a 55° C. oven. Scintillation fluid was added and the radioactivity was counted in a Packard TopCount. Non-specific binding to the H3 receptor was defined by radioactivity that was bound in the presence of 100 μM histamine.
Compounds were tested in their free base or hydrochloride salt forms.

Sequence of human H3 receptor (Q9Y5N1 whole entry): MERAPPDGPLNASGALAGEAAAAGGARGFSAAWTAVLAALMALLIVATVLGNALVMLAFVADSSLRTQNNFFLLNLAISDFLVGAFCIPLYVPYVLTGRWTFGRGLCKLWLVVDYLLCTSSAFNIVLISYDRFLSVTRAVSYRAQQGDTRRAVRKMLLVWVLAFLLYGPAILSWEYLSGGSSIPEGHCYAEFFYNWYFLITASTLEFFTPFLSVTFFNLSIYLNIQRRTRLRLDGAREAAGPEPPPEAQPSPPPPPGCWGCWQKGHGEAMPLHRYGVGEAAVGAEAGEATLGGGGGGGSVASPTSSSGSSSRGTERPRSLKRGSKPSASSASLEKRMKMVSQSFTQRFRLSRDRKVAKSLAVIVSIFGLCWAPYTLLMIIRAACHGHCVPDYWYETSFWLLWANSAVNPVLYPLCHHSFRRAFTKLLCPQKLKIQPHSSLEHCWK

**Q.** For `CC(C)(C)OC(=O)N1C[C@H](Oc2ccccn2)C[C@H]1C(=O)N1CCCN(C2CCC2)CC1` (stereo in doubt) [Example 50, (2S,4R)-2-(4-Cyclobutyl-[1,4]diazepane-1-carbonyl)-4-(pyridin-2-yloxy)-pyrrolidine-1-carboxylic acid tert-butyl ester], which Ki is on record?
**A.** 0.005 µM

**Q.** For `Cc1cnc(F)cc1O[C@@H]1C[C@@H](C(=O)N2CCCN(C3CCC3)CC2)N(C(=O)OC(C)(C)C)C1` (stereo in doubt) [Example 51, (2S,4R)-2-(4-Cyclobutyl-[1,4]diazepane-1-carbonyl)-4-(2-fluoro-5-methyl-pyridin-4-yloxy)-pyrrolidine-1-carboxylic acid tert-butyl ester], which Ki is on record?
**A.** 0.002 µM

**Q.** How did the Ki turn out when `CC(C)(C)OC(=O)N1CC[C@H](O)[C@H]1C(=O)N1CCCN(C2CCC2)CC1` [Example 3, (2S,3S)-2-(4-Cyclobutyl-[1,4]diazepane-1-carbonyl)-3-hydroxy-pyrrolidine-1-carboxylic acid tert-butyl Ester] was run?
**A.** 1.27 µM

**Q.** For `CC(C)(C)OC(=O)N1C[C@@H](O)C[C@@H]1C(=O)N1CCCN(C2CCC2)CC1` [Example 4, (2R,4S)-2-(4-Cyclobutyl-[1,4]diazepane-1-carbonyl)-4-hydroxy-pyrrolidine-1-carboxylic acid tert-butyl Ester], which Ki is on record?
**A.** 0.053 µM

**Q.** `CC(C)(C)OC(=O)N1C[C@H](O)C[C@@H]1C(=O)N1CCCN(C2CC2)CC1` [Example 5, (2R,4R)-2-(4-Cyclopropyl-[1,4]diazepane-1-carbonyl)-4-hydroxy-pyrrolidine-1-carboxylic acid tert-butyl Ester] was tested. Which Ki did it give?
**A.** 1.25 µM

**Q.** `CC(C)(C)OC(=O)N1C[C@H](O)C[C@@H]1C(=O)N1CCN(C2CCCC2)CC1` [Example 6, (2R,4R)-2-(4-Cyclopentyl-piperazine-1-carbonyl)-4-hydroxy-pyrrolidine-1-carboxylic acid tert-butyl Ester] was tested. Which Ki did it give?
**A.** 1.11 µM

**Q.** For `CC(C)(C)OC(=O)N1C[C@H](O)C[C@@H]1C(=O)N1CCCN(C2CCCC2)CC1` [Example 7, (2R,4R)-2-(4-Cyclopentyl-[1,4]diazepane-1-carbonyl)-4-hydroxy-pyrrolidine-1-carboxylic acid tert-butyl Ester], which Ki is on record?
**A.** 0.432 µM

**Q.** With `CC(C)(C)OC(=O)N1C[C@H](O)C[C@@H]1C(=O)N1CCCN(C2CCC2)CC1` [Example 8, (2R,4R)-2-(4-Cyclobutyl-[1,4]diazepane-1-carbonyl)-4-hydroxy-pyrrolidine-1-carboxylic acid tert-butyl Ester] as the molecule, how does the Ki read?
**A.** 0.534 µM

**Q.** For `O=C([C@H]1C[C@@H](O)CN1C(=O)OCc1ccccc1)N1CCCN(C2CCC2)CC1` [Example 9, (2R,4R)-2-(4-Cyclobutyl-[1,4]diazepane-1-carbonyl)-4-hydroxy-pyrrolidine-1-carboxylic Acid Benzyl Ester], which Ki is on record?
**A.** 0.05 µM

**Q.** How did the Ki turn out when `CC(=O)N1C[C@@H](O)C[C@@H]1C(=O)N1CCCN(C2CCC2)CC1` [Example 10, (2R,4S)-1-[2-(4-Cyclobutyl-[1,4]diazepane-1-carbonyl)-4-hydroxy-pyrrolidin-1-yl]-ethanone] was run?
**A.** 0.115 µM

**Q.** Which Ki does the source give for `CC(C)(C)OC(=O)N1C[C@@H](Oc2ccccc2)C[C@H]1C(=O)N1CCCN(C2CCC2)CC1` [Example 14, (2S,4S)-2-(4-Cyclobutyl-[1,4]diazepane-1-carbonyl)-4-phenoxy-pyrrolidine-1-carboxylic acid tert-butyl ester] here?
**A.** 0.126 µM

**Q.** For `CSc1ccc(O[C@H]2C[C@H](C(=O)N3CCCN(C4CCC4)CC3)N(C(=O)OC(C)(C)C)C2)cc1` [Example 23, (2R,4S)-2-(4-Cyclobutyl-[1,4]diazepane-1-carbonyl)-4-(4-methylsulfanyl-phenoxy)-pyrrolidine-1-carboxylic acid tert-butyl ester], which Ki is on record?
**A.** 0.007 µM

**Q.** For `Cc1cc(O[C@H]2C[C@H](C(=O)N3CCCN(C4CCC4)CC3)N(C(=O)OC(C)(C)C)C2)ccc1Cl` [Example 24, (2R,4S)-4-(4-Chloro-3-methyl-phenoxy)-2-(4-cyclobutyl-[1,4]diazepane-1-carbonyl)-pyrrolidine-1-carboxylic acid tert-butyl ester], which Ki is on record?
**A.** 0.004 µM

**Q.** For `CC(C)(C)OC(=O)N1C[C@@H](Oc2ccc(S(C)(=O)=O)cc2)C[C@@H]1C(=O)N1CCCN(C2CCC2)CC1` [Example 25, (2R,4S)-2-(4-Cyclobutyl-[1,4]diazepane-1-carbonyl)-4-(4-methanesulfonyl-phenoxy)-pyrrolidine-1-carboxylic acid tert-butyl ester], which Ki is on record?
**A.** 0.005 µM

**Q.** How did the Ki turn out when `COc1cccc(O[C@H]2C[C@H](C(=O)N3CCCN(C4CCC4)CC3)N(C(=O)OC(C)(C)C)C2)c1` [Example 26, (2R,4S)-2-(4-Cyclobutyl-[1,4]diazepane-1-carbonyl)-4-(3-methoxy-phenoxy)-pyrrolidine-1-carboxylic acid tert-butyl ester] was run?
**A.** 0.012 µM

**Q.** With `CC(C)(C)OC(=O)N1C[C@@H](Oc2ccc(C(F)(F)F)cc2)C[C@@H]1C(=O)N1CCCN(C2CCC2)CC1` [Example 28, (2R,4S)-2-(4-Cyclobutyl-[1,4]diazepane-1-carbonyl)-4-(4-trifluoromethyl-phenoxy)-pyrrolidine-1-carboxylic acid tert-butyl ester] as the molecule, how does the Ki read?
**A.** 0.007 µM

**Q.** How did the Ki turn out when `Cc1ccc(O[C@H]2C[C@H](C(=O)N3CCCN(C4CCC4)CC3)N(C(=O)OC(C)(C)C)C2)cc1` [Example 29, (2R,4S)-2-(4-Cyclobutyl-[1,4]diazepane-1-carbonyl)-4-p-tolyloxy-pyrrolidine-1-carboxylic acid tert-butyl ester] was run?
**A.** 0.008 µM

**Q.** With `Cc1ccccc1O[C@H]1C[C@H](C(=O)N2CCCN(C3CCC3)CC2)N(C(=O)OC(C)(C)C)C1` [Example 30, (2R,4S)-2-(4-Cyclobutyl-[1,4]diazepane-1-carbonyl)-4-o-tolyloxy-pyrrolidine-1-carboxylic acid tert-butyl ester] as the molecule, how does the Ki read?
**A.** 0.008 µM

**Q.** With `CC(C)(C)OC(=O)N1C[C@@H](Oc2ccc(F)cc2)C[C@@H]1C(=O)N1CCCN(C2CC2)CC1` [Example 31, (2R,4S)-2-(4-Cyclopropyl-[1,4]diazepane-1-carbonyl)-4-(4-fluoro-phenoxy)-pyrrolidine-1-carboxylic acid tert-butyl ester] as the molecule, how does the Ki read?
**A.** 0.015 µM

**Q.** Which Ki does the source give for `CC(C)(C)OC(=O)N1C[C@@H](Oc2ccc(C#N)cc2)C[C@@H]1C(=O)N1CCCN(C2CC2)CC1` [Example 32, (2R,4S)-4-(4-Cyano-phenoxy)-2-(4-cyclopropyl-[1,4]diazepane-1-carbonyl)-pyrrolidine-1-carboxylic acid tert-butyl ester] here?
**A.** 0.01 µM

**Q.** With `CC(C)(C)OC(=O)N1C[C@@H](Oc2ccc(F)cc2)C[C@@H]1C(=O)N1CCN(C2CCCC2)CC1` [Example 33, (2R,4S)-2-(4-Cyclopentyl-piperazine-1-carbonyl)-4-(4-fluoro-phenoxy)-pyrrolidine-1-carboxylic acid tert-butyl ester] as the molecule, how does the Ki read?
**A.** 0.024 µM

**Q.** How did the Ki turn out when `CC(C)(C)OC(=O)N1C[C@@H](Oc2ccc(C#N)cc2)C[C@@H]1C(=O)N1CCN(C2CCCC2)CC1` [Example 34, (2R,4S)-4-(4-Cyano-phenoxy)-2-(4-cyclopentyl-piperazine-1-carbonyl)-pyrrolidine-1-carboxylic acid tert-butyl ester] was run?
**A.** 0.014 µM

**Q.** `CC(C)(C)OC(=O)N1C[C@@H](Oc2ccc(F)cc2)C[C@@H]1C(=O)N1CCCN(C2CCCC2)CC1` [Example 35, (2R,4S)-2-(4-Cyclopentyl-[1,4]diazepane-1-carbonyl)-4-(4-fluoro-phenoxy)-pyrrolidine-1-carboxylic acid tert-butyl ester] was tested. Which Ki did it give?
**A.** 0.002 µM
